In data set [1] the target is endogenous human D1-like dopamine receptor in MCF7 cells (Homo sapiens, UniProt P21728). The conditions noted are these: for Intrinsic Activity (% dopamine), Endogenous hD1: normalized to maximal cyclic AMP accumulation with dopamine (FIG. 3A). How it is done: The data presented in FIG. 2B are the mean±SEM of three independent experiments assayed in duplicate.
The data presented in FIGS. 3B-C are the mean±SEM of three independent experiments assayed in duplicate.
(§1) Cell Culture. […] Cells were grown at 37° C. in a humidified incubator with 6% CO2.
(§2) Cyclic AMP accumulation assay. Assays were performed on confluent monolayers of cells in 48-well plates. […] Cyclic AMP stimulation assays were performed on HEK D1-CRELuc or MCF7 cells by incubating the cells with ligands for 15 minutes at 37° C. Cyclic AMP inhibition assays were performed on HEK-α2C cells in the presence 30 μM forskolin to stimulate cyclic AMP formation. All assays were performed in the presence of 500 μM isobutylmethylxanthine (IBMX) and terminated with ice cold 3% trichloroacetic acid.
(§3) Cyclic AMP binding assay. […] Briefly, cellular lysate (15-20 μL) was added to cyclic AMP binding buffer (100 mM Tris-HCl, pH 7.4, 100 mM NaCl, 5 mM EDTA) in assay tubes containing 1 nM final concentration [^3H]cyclic AMP and bovine adrenal gland cyclic AMP binding protein (100-150 μg in 500 μl binding buffer). The binding assay was incubated on ice at 4° C. for 2-4 hours and terminated by harvesting with ice cold wash buffer (10 mM Tris, 0.9% NaCl) using a 96-well Packard Filtermate cell harvester and Millipore Multiscreen Harvest Plates (Millipore, Billerica, Mass., USA). Packard Microscint O (40 μL) was added to each well after drying. Radioactivity was counted using a Packard Topcount scintillation counter. Standard curves ranging from 0.01 to 300 pmol of cyclic AMP were used to determine the concentration of cyclic AMP in each sample. Data analysis was performed on GraphPad Prism software.

For data set [2], the target named is T1, α2C adrenergic receptor (Homo sapiens, UniProt P18825).
T1 construct: expressed in transfected cells; host or cells: HEK293 (HEK-α2C)
T1 sequence (P18825 1-462): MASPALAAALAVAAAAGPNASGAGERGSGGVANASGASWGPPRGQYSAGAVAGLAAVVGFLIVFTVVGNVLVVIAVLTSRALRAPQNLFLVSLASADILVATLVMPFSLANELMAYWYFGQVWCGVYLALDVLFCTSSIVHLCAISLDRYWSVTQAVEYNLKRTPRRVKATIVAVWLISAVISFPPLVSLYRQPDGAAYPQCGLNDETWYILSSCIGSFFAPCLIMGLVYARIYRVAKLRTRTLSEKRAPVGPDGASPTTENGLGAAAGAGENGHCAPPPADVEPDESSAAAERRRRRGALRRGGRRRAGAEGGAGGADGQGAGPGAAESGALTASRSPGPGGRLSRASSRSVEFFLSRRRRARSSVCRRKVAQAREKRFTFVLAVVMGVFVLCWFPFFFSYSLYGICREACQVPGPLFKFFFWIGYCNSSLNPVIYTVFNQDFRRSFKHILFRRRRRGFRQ
The data set can be described thus: NIMH-sponsored Psychoactive Drug Screening Program affinity screen. It is filed as binding. The conditions noted are these: NIMH PDSP screen.

Data set [3] addresses T1, α2C adrenergic receptor. Nature of the data set: Inhibition of forskolin-stimulated cyclic AMP accumulation in HEK293 cells stably expressing the α2C receptor. The class given is cell-based. The note with it: for EC50 / Intrinsic Activity (% forskolin), α2C Adrenergic: HEK-α2C cells; for EC50: 30 μM forskolin, 15 min at 37° C.; for Intrinsic Activity (% forskolin), α2C Adrenergic: inhibition of cyclic AMP stimulated by 30 μM forskolin.
Excerpt: The data presented have been normalized to the maximal cyclic AMP accumulation observed in the presence of forskolin alone and are the mean±SEM of three independent experiments assayed in duplicate.
Briefly, HEK D1-CreLuc cells were created by a two step process. HEK293 cells were co-transfected with the pBabe Puro and pGL-CreLuc vectors. Puromycin resistant clones, which expressed the functional cyclic AMP response element-linked luciferase reporter gene, were selected. Next, HEK-CreLuc cells were stably transfected with pcDNA3.1 (+)-D1. Clones were assayed for D1 receptor function by measuring cyclic AMP accumulation and luciferase activity. HEK-α2C cells were constructed by stable transfection with pcDNA.3(+)-α2C. G418 resistant clones were selected and assayed for α2C function by measuring inhibition of forskolin-stimulated cyclic AMP accumulation.
as §1, §2, §3

In data set [4] the target is human dopamine D1 receptor (Homo sapiens, UniProt P21728). Nature of the data set: Cyclic AMP accumulation in HEK cells stably expressing the human dopamine D1 receptor (cloned hD1). The conditions noted are these: normalized to maximal cyclic AMP accumulation with dopamine. The class given is cell-based.
human dopamine D1 receptor, sequence (P21728 whole entry): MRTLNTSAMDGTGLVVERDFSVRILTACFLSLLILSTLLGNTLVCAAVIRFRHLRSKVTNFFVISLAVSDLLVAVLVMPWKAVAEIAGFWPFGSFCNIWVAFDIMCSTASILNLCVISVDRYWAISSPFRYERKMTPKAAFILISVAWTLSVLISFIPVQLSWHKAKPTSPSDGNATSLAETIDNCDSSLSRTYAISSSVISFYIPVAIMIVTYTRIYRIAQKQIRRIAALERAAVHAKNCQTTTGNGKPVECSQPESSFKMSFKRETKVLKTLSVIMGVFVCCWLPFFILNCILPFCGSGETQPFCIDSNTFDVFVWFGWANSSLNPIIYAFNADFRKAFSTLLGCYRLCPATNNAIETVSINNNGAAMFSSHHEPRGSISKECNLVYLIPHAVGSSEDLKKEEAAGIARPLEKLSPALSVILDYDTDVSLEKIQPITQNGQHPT
Procedure: Cyclic AMP accumulation assay. Assays were performed on confluent monolayers of cells in 48-well plates. […] Cyclic AMP stimulation assays were performed on HEK D1-CRELuc or MCF7 cells by incubating the cells with ligands for 15 minutes at 37° C. […] All assays were performed in the presence of 500 μM isobutylmethylxanthine (IBMX) and terminated with ice cold 3% trichloroacetic acid.
The target of data set [5] is native D1-like dopamine receptors in porcine striatal tissue (Sus scrofa, UniProt P50130). The data set can be described thus: Porcine striatal cyclase assay (cyclic AMP stimulation in striatal homogenate). The class given is biochemical. The note with it: read-out: intrinsic activity in porcine striatal tissue. The procedure:
as §3
The homogenate was centrifuged at 1,000×g for 10 min at 4° C.

Values joined by “and” are separate entries in the source; they are usually repeats but may differ in a detail not shown here. Equal values may be shown once. Where a name gives a salt, the structure may show the parent alone. Bounds are passed on as bounds.

endogenous human D1-like dopamine receptor in MCF7 cells, sequence (P21728 whole entry): as above
native D1-like dopamine receptors in porcine striatal tissue, sequence (P50130 whole entry): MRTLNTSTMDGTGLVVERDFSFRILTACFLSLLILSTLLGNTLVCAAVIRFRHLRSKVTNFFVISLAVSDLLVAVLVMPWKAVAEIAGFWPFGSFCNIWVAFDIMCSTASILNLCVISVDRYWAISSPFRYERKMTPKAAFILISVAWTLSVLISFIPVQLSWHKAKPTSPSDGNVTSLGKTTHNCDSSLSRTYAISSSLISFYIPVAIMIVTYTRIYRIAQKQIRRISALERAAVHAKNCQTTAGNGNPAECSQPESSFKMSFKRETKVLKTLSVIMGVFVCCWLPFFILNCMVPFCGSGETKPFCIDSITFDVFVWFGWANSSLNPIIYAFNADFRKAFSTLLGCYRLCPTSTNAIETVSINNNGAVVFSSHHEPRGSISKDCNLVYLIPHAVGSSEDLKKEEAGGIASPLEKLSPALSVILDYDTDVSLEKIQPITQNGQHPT

`O=C1N[C@@H]2COc3cc4c(cc3[C@H]2c2ccsc21)OCO4` (racemic) [Example 23, (±)-Trans-9,10-methylenedioxy-5,5a,6,11b-tetrahydro-4H-chromeno[3,4-b]thieno[3,2-d]pyridin-4-one] came in with a melting point of over 250 °C. Take `Br.Cc1ccc2c(c1)C1c3cc(O)c(O)cc3OCC1NC2` (stereo not drawn): the melting point was 195 to 200 °C (dec.). Regarding `Cl.Oc1cc2c(cc1O)C1c3ccccc3CNC1CO2` (racemic) [(±)-ODHX, 2,3-Dihydroxy-6a,7,8,12b-tetrahydro-6H-chromeno[3,4-c]isoquinoline hydrochloride], the “Intrinsic Activity (% dopamine), Endogenous hD1” value in data set [1] came to 80 ± 3 % dopamine. Moreover, the Ki at α2C adrenergic receptor [2] was about 2 nM.

In turn, `Cl.c1ccc2c(c1)CN[C@@H]1COc3cc4c(cc3[C@@H]21)OCO4` yielded a melting point of 163 °C.

For `Cl.Oc1cc2c(cc1O)[C@@H]1c3ccccc3CN[C@H]1CO2` [(−)-ODHX, (−)-(6aR,12bS)-2,3-Dihydroxy-6a,7,8,12b-tetrahydro-6H-chromeno[3,4-c]isoquinoline hydrochloride], at α2C adrenergic receptor [3], the EC50 amounted to 4.4 nM and the “Intrinsic Activity (% forskolin), α2C Adrenergic” value (“Intrinsic Activity (% forskolin)” below) amounted to 69 ± 2 % forskolin. Besides, the “effect alone on cyclic AMP levels” value in data set [1] (10 μM alone) is on record as “significant increase in cyclic AMP levels”. Besides, the “antagonism of dopamine- and (+)-ODHX-stimulated cyclic AMP accumulation” value in data set [1] (dose-response curves in presence of 10 μM (−)-ODHX (FIGS. 3B-C)) was “reduced the intrinsic activity and potency of both dopamine and (+)-ODHX”. Further, the “Intrinsic Activity (% dopamine), Cloned hD1” value in data set [4] turned out to be 85 ± 6 % dopamine. As for `Oc1cc2c(cc1O)[C@H]1c3ccccc3CN[C@@H]1CO2` [(+)-ODHX, (+)-(6aS,12bR)-2,3-Dihydroxy-6a,7,8,12b-tetrahydro-6H-chromeno[3,4-c]isoquinoline hydrochloride], in data set [5], the Emax stood at 115 ± 15%. In addition, on α2C adrenergic receptor [3], the “intrinsic activity as share of the intrinsic activity of (−)-ODHX at α2C receptor” value was “ca. 50%” and the concentration for a half-maximal effect (EC50) stood at 151 ± 25 nM. Further, at α2C adrenergic receptor [3] (hydrochloride), the “Intrinsic Activity (% forskolin)” value was 34±6 % forskolin and 34 ± 7 % forskolin. Also, the “Intrinsic Activity (% dopamine), Endogenous hD1” value in data set [1] came to 131 ± 13 % dopamine. Further, the “Intrinsic Activity (% dopamine), Cloned hD1” value in data set [4] (hydrochloride) amounted to 109±6 % dopamine. For `Clc1cccc(Cl)c1N=C1NCCN1` [Clonidine, reference compound], the “Intrinsic Activity (% forskolin)” value on α2C adrenergic receptor [3] was 61 ± 5 % forskolin. Regarding `Cc1ccc2c(c1)C1c3cc4c(cc3OCC1NC2=O)OCO4` (stereo not drawn) [Example 16, 2,3-methylenedioxy-11-methyl-6a,7-dihydro-6H-12bH-chromeno[3,4-c]isoquinolin-8-one], the melting point is over 250 °C.

In the case of `Cl.c1ccc2c(c1)CN[C@H]1COc3cc4c(cc3[C@H]21)OCO4`, the melting point came to 163 °C. For the compound `C1=NC2COc3cc4c(cc3C2c2ccccc21)OCO4` (stereo not drawn) [Example 5, 2,3-Methylenedioxy-6a,12b-dihydro-6H-chromeno[3,4-c]isoquinoline], the melting point amounted to 191 °C. For `c1ccc2c(c1)CNC1COc3cc4c(cc3C21)OCO4` (stereo not drawn) [Example 6, 2,3-Methylenedioxy-6a,7,8,12b-tetrahydro-6H-chromeno[3,4-c]isoquinoline], the melting point was found to be 188 °C.

Values taken from patent publication US8318938B2, “Trans-fused chromenoisoquinolines synthesis and methods for use” (Purdue Research Foundation, priority 2006, dated 2012).
